Measurements reported in patent US7348025B2, “Small particle liposome aerosols for delivery of anticancer drugs” (priority 1999, dated 2008).
Several values for one entry are separate records, joined by “and”; a condition that tells them apart may be missing. Identical values can stand only once. Like-named read-outs stand apart in the source and are kept apart here.

Key:
[1] = Time dependent organ distribution of CPT after intranasal administration of DLPC liposomes; type: in vivo; conditions: other: intranasal instillation, mice, intranasal DLPC liposomal CPT 7 μg per mouse, read-out: CPT in tissue
Procedure: The mobile phase was 30% acetonitrile and 70% of 0.1% glacial acetic acid. CPT was detected using the Waters 470 scanning fluorescence detector set to an excitation wavelength of 370 nm and an emission wavelength of 440 nm. […] The data were analyzed with the Waters Millenium software. […]
CPT was administered in liposomal formulation prepared with DLPC with initial drug concentration 0.2 mg/ml.
35 μL of suspension was installed to each animal (group of 3 animals was treated for each time point).

[2] = Tissue distribution of CPT after inhalation of CPT liposome aerosol; type: in vivo, Mouse; conditions: mice; for CPT in tissue: individual animals; for concentration at 15 min: mouse, in vivo, 486 ng per mouse, 4 animals, read-out: MEAN (±SD) CPT in tissue
Procedure: The final suspension was clear. If precipitation occurred, it was reheated to 50-60° C. The preparation was frozen in liquid nitrogen and lyophilized overnight. For use the material was dissolved in sterile water to the appropriate drug concentration, not exceeding 1.0 mg/ml for either drug. The efficiency of incorporation of drug in the liposomes was examined qualitatively by microscopic examination under polarized light. Unincorporated drug was seen as bi-refringent crystals. The efficiency of incorporation was examined by centrifugation of aqueous suspensions of liposomes on Percoll™ gradients. One-tenth ml of suspension was layered over 2 ml of gradient and centrifuged at 2000 rpm for 25-30 minutes. Liposomes layer at the water-Percoll interface, while unincorporated drug was deposited at the bottom of the tube. Many other lipids may be substituted for DLPC in the formulation and use of liposomes for delivery of drugs by aerosol (26).
(§1) The mobile phase was 30% acetonitrile and 70% of 0.1% glacial acetic acid. CPT was detected using the Waters 470 scanning fluorescence detector set to an excitation wavelength of 370 nm and an emission wavelength of 440 nm. […] The data were analyzed with the Waters Millenium software.
The deposited dose was calculated to be 486 ng per mouse. The mean concentrations in lungs and liver were similar with smaller concentrations in the other sites examined. […] Drug was cleared promptly from the lungs so that 15 minutes after stopping nebulization only negligible amounts of drug were present in the lungs. Liver, kidney and spleen had substantial amounts of drug initially which gradually diminished through the one hour of study. […] These studies indicate substantial immediate deposition of drug in the lungs with rapid clearance to the viscera. The amount of drug contributed by absorption from swallowed drug is uncertain.

[3] = Time dependent organ distribution of CPT after intramuscular administration; type: in vivo; conditions: mouse, mice, i.m. CPT in DMSO/saline suspension, read-out: CPT in tissue
Procedure: as §1
Drug disappeared very slowly from the site of intramuscular injection in the first 12 hours, with only very small concentrations detected in the liver and virtually no drug present at other sites. Concentrations in the blood were negligible throughout the study. The dose administered was the same as that given by intranasal instillation. These findings indicate a speedier and more efficient systemic absorption of drug after pulmonary administration of drug than by the intramuscular route. It is likely that deposition in organs and vascular spaces will increase the opportunity for exposure to albumin molecules and degradation to the carboxyl form of the drug.

[4] = Blood, after 15 minutes inhalation of CPT liposome aerosol
[5] = Kidney, after 15 minutes inhalation of CPT liposome aerosol
[6] = Liver, after 15 minutes inhalation of CPT liposome aerosol
[7] = Spleen, after 15 minutes inhalation of CPT liposome aerosol
[8] = site of injection, 7 µg/mouse, Site of inj.
[9] = whole blood, 7 μg per mouse, Blood

For `CC[C@@]1(O)C(=O)OCc2c1cc1n(c2=O)Cc2cc3ccccc3nc2-1` [CPT, 20-S-camptothecin], the concentration at 0 min ([1]; Kidney) was 542 ± 174 ng/g, the concentration at 15 min ([1]; Kidney) was 190 ± 57 ng/g and the concentration at 30 min ([1]; Kidney) was 49 ± 13 ng/g. It also gave a concentration at 60 min ([1]; Kidney) of 24 ± 21 ng/g, a concentration at 0 min ([1]; Liver) of 651 ± 418 ng/g and a concentration at 15 min ([1]; Liver) of 255 ± 101 ng/g. The concentration at 30 min ([1]; Liver) was 66 ± 17 ng/g, the concentration at 60 min ([1]; Liver) was 34 ± 7 ng/g and the concentration at 0 min ([1]; Lung) was 1290 ± 657 ng/g. For the same compound, the concentration at 15 min ([1]; Lung) was 19 ± 3 ng/g, the concentration at 30 min ([1]; Lung) was 36 ± 23 ng/g and the concentration at 60 min ([1]; Lung) was 7 ± 3 ng/g. For the same compound, the concentration at 0 min ([1]; Spleen) was 351 ± 137 ng/g, the concentration at 15 min ([1]; Spleen) was 84 ± 32 ng/g and the concentration at 30 min ([1]; Spleen) was 21 ± 8 ng/g. For the same compound, the concentration at 60 min ([1]; Spleen) was 7 ± 2 ng/g, the concentration at 0 min ([1]; whole blood, Blood) was 213 ± 19 ng/g and the concentration at 15 min ([1]; whole blood, Blood) was 53 ± 20 ng/g. For the same compound, the concentration at 30 min ([1]; whole blood, Blood) was 8 ± 3 ng/g, the concentration at 60 min ([1]; whole blood, Blood) was 4 ± 2 ng/g and the CPT in tissue [2, 4] was 7.1 ng/gm and 8.3 ng/gm and 22.6 ng/gm and 17.7 ng/gm. The CPT in tissue [2, 5] was 21.8 ng/gm and 18.0 ng/gm and 50.0 ng/gm and 29.3 ng/gm, the CPT in tissue [2, 6] was 44.3 ng/gm (2×) and 21.9 ng/gm and 178.0 ng/gm and the CPT in tissue ([2]; Lung, after 15 minutes inhalation of CPT liposome aerosol (0.2 mg/ml in nebulizer)) was 48.0 ng/gm and 27.0 ng/gm and 77.5 ng/gm and 52.0 ng/gm. For the same compound, the CPT in tissue [2, 7] was 16.4 ng/gm and 11.4 ng/gm and 25.0 ng/gm and 12.0 ng/gm, the concentration at 15 min [2, 4] was 13.9 ± 7.5 ng/g and the concentration at 15 min [2, 5] was 29.8 ± 14.3 ng/g. It also gave a concentration at 15 min [2, 6] of 72.1 ± 71.4 ng/g, a concentration at 15 min ([2]; Lung, after 15 minutes inhalation of CPT liposome aerosol) of 51.1 ± 20.7 ng/g and a concentration at 15 min [2, 7] of 16.2 ± 6.3 ng/g. It also gave a concentration at 0 min ([3]; 7 μg per mouse, Kidney) of 2 ng/g, a concentration at 30 min ([3]; 7 μg per mouse, Kidney) of 40 ± 14 ng/g and a concentration at 60 min ([3]; 7 μg per mouse, Kidney) of 26 ± 7 ng/g. The concentration at 1200 min ([3]; 7 μg per mouse, Kidney) was 15 ± 5 ng/g, the concentration at 0 min ([3]; 7 μg per mouse, Spleen) was 2 ± 1 ng/g and the concentration at 30 min ([3]; 7 μg per mouse, Spleen) was 18 ± 9 ng/g. The concentration at 60 min ([3]; 7 μg per mouse, Spleen) was 11 ± 5 ng/g, the concentration at 1200 min ([3]; 7 μg per mouse, Spleen) was 5 ± 1 ng/g and the concentration at 60 min ([3]; 7 µg/mouse, Blood) was 8 ± 1 ng/g. The concentration at 1200 min ([3]; 7 µg/mouse, Blood) was 4 ± 1 ng/g, the concentration at 0 min ([3]; 7 µg/mouse, Liver) was 3 ± 1 ng/g and the concentration at 30 min ([3]; 7 µg/mouse, Liver) was 87 ± 74 ng/g. For the same compound, the concentration at 60 min ([3]; 7 µg/mouse, Liver) was 136 ± 107 ng/g, the concentration at 1200 min ([3]; 7 µg/mouse, Liver) was 126 ± 116 ng/g and the concentration at 0 min ([3]; 7 µg/mouse, Lung) was 2 ± 1 ng/g. It also gave a concentration at 30 min ([3]; 7 µg/mouse, Lung) of 4 ± 2 ng/g, a concentration at 60 min ([3]; 7 µg/mouse, Lung) of 3 ± 3 ng/g and a concentration at 1200 min ([3]; 7 µg/mouse, Lung) of 4 ± 3 ng/g. For the same compound, the concentration at 0 min [3, 8] was 6920 ± 265 ng/g, the concentration at 30 min [3, 8] was 4310 ± 1550 ng/g and the concentration at 60 min [3, 8] was 4610 ± 1410 ng/g. The concentration at 1200 min [3, 8] was 1540 ± 751 ng/g, the concentration at 0 min [3, 9] was 2 ± 1 ng/g and the concentration at 30 min [3, 9] was 12 ± 5 ng/g.
